# Read-outs that look alike come from different tables or passages of the source.
# What was measured:
# [1] = test system: H82 tumors; experiment: In vivo xenograft, human lung (SCLC) H82
# [2] = test system: A2780 tumors
# Procedure: Female athymic nu/nu mice (Harlan Laboratories Models, S. L. Barcelona, Spain or Envigo, Spain) were utilized for all experiments. Animal were housed in individually ventilated cages Sealsafe® Plus, Techniplast S.P.A.), up to ten per cage on a 12-hour light-dark cycle at 21-23° C. and 40-60% humidity. […] Animals were acclimated for at least 5 days prior to tumor implantation with a tumor cell suspension.
# Culture cells were passaged every 3 to 5 days upon reaching confluence. Each animal was subcutaneously implanted (on the right flank using 26 G needle and a 1 cc syringe) at 4-6 weeks of age with 10×10^6 A2780 cells suspended in 0.05 mL of a solution consisting of 50% Matrigel® (Corning Incorporated Life Sciences) and 50% medium without serum or antibiotics.
# Treatment tolerability was assessed by monitoring body weight evolution, clinical signs of systemic toxicity, as well as evidences of local damage in the injection site.
# In xenograft studies with other cell lines: • Tumor volume was calculated using the equation (a·b^2)/2, where a: length (longest diameter) and b: width (shortest diameter) were measured in mm by using digital caliper (Fowler Sylvac, S235PAT).
# Treatments producing >20% lethality and/or 20% net body weight loss were considered toxic.
# [3] = test system: H526 tumors; experiment: In vivo xenograft, human lung (SCLC) H526
smiles,measurement,setting,value
COc1c(C)cc2c(c1O)[C@@H]1[C@@H]3[C@@H]4SC[C@]5(N[C@@H](C)Cc6c5[nH]c5ccccc65)C(=O)OC[C@@H](c5c6c(c(C)c(OC(C)=O)c54)OCO6)N3[C@@H](O)[C@H](C2)N1C [D],Median Tumor Volume,"[1]; Table 33, Day 21.0, iv Days 0, 7, 14, 12-R 0.05 mg/kg, Compound D 0.5 mg/kg",1748.0 mm^3
same,Median Tumor Volume,"[1]; Table 57, Day 0, iv weekly, 47-R 0.1 mg/Kg, Compound D 0.5 mg/Kg",169.4 mm^3
same,Median Tumor Volume,"[1]; Table 57, Day 2, iv weekly, 47-R 0.1 mg/Kg, Compound D 0.5 mg/Kg",340.6 mm^3
same,Median Tumor Volume,"[1]; Table 57, Day 5, iv weekly, 47-R 0.1 mg/Kg, Compound D 0.5 mg/Kg",443.3 mm^3
same,Median Tumor Volume,"[1]; Table 57, Day 7, iv weekly, 47-R 0.1 mg/Kg, Compound D 0.5 mg/Kg",496.2 mm^3
same,Median Tumor Volume,"[1]; Table 57, Day 9, iv weekly, 47-R 0.1 mg/Kg, Compound D 0.5 mg/Kg",614.1 mm^3
same,Median Tumor Volume,"[1]; Table 57, Day 12, iv weekly, 47-R 0.1 mg/Kg, Compound D 0.5 mg/Kg",665.5 mm^3
same,Median Tumor Volume,"[1]; Table 57, Day 14, iv weekly, 47-R 0.1 mg/Kg, Compound D 0.5 mg/Kg",1041.6 mm^3
same,Median Tumor Volume,"[1]; Table 57, Day 16, iv weekly, 47-R 0.1 mg/Kg, Compound D 0.5 mg/Kg",1151.2 mm^3
same,Median Tumor Volume,"[1]; Table 57, Day 19, iv weekly, 47-R 0.1 mg/Kg, Compound D 0.5 mg/Kg",1516.7 mm^3
same,Median Tumor Volume,"[1]; Table 57, Day 21, iv weekly, 47-R 0.1 mg/Kg, Compound D 0.5 mg/Kg",1748.0 mm^3
same,Median Tumor Volume,"[2]; Table 26, Day 0, iv Days 0, 7, 14",190.1 mm^3
same,Median Tumor Volume,"[2]; Table 26, Day 3, iv Days 0, 7, 14",319.6 mm^3
same,Median Tumor Volume,"[2]; Table 26, Day 5, iv Days 0, 7, 14",514.4 mm^3
same,Median Tumor Volume,"[2]; Table 26, Day 7, iv Days 0, 7, 14",897.4 mm^3
same,Median Tumor Volume,"[2]; Table 26, Day 10, iv Days 0, 7, 14",1239.8 mm^3
same,Median Tumor Volume,"[2]; Table 26, Day 12, iv Days 0, 7, 14",1656.2 mm^3
same,Median Tumor Volume,"[2]; Table 26, Day 14, iv Days 0, 7, 14",1951.7 mm^3
same,Median Tumor Volume,"[2]; Table 26, Day 17, iv Days 0, 7, 14",2121.7 mm^3
same,Median Tumor Volume,"[2]; Table 26, Day 19, iv Days 0, 7, 14",2068.6 mm^3
same,Median Tumor Volume,"[2]; iv, 0.5 mg/kg, 0 h",168.8 mm^3
same,Median Tumor Volume,"[2]; iv, 0.5 mg/kg, 48 h",225.7 mm^3
same,Median Tumor Volume,"[2]; iv, 0.5 mg/kg, 120 h",256.6 mm^3
same,Median Tumor Volume,"[2]; iv, 0.5 mg/kg, 168 h",473.8 mm^3
same,Median Tumor Volume,"[2]; iv, 0.5 mg/kg, 336 h",1129.3 mm^3
same,Median Tumor Volume,"[2]; iv, 0.5 mg/kg, 384 h",1198.6 mm^3
same,Median Tumor Volume,"[2]; iv, 0.5 mg/kg, 456 h",1649.6 mm^3
same,Median Tumor Volume,"[2]; iv, 0.5 mg/kg, 504 h",2025.0 mm^3
same,Median Tumor Volume,"[3]; Table 32, Day 0.0, iv Days 0, 7, 14, 12-R 0.05 mg/kg, Compound D 0.5 mg/kg",216.1 mm^3
same,Median Tumor Volume,"[3]; Table 32, Day 2.0, iv Days 0, 7, 14, 12-R 0.05 mg/kg, Compound D 0.5 mg/kg",240.9 mm^3
same,Median Tumor Volume,"[3]; Table 32, Day 4.0, iv Days 0, 7, 14, 12-R 0.05 mg/kg, Compound D 0.5 mg/kg",99.3 mm^3
same,Median Tumor Volume,"[3]; Table 32, Day 7.0, iv Days 0, 7, 14, 12-R 0.05 mg/kg, Compound D 0.5 mg/kg",56.7 mm^3
same,Median Tumor Volume,"[3]; Table 32, Day 9.0, iv Days 0, 7, 14, 12-R 0.05 mg/kg, Compound D 0.5 mg/kg",62.5 mm^3
same,Median Tumor Volume,"[3]; Table 32, Day 11.0, iv Days 0, 7, 14, 12-R 0.05 mg/kg, Compound D 0.5 mg/kg",62.5 mm^3
same,Median Tumor Volume,"[3]; Table 32, Day 14.0, iv Days 0, 7, 14, 12-R 0.05 mg/kg, Compound D 0.5 mg/kg",32.0 mm^3
same,Median Tumor Volume,"[3]; Table 32, Day 16.0, iv Days 0, 7, 14, 12-R 0.05 mg/kg, Compound D 0.5 mg/kg",4.0 mm^3
same,Median Tumor Volume,"[3]; Table 32, Day 21.0, iv Days 0, 7, 14, 12-R 0.05 mg/kg, Compound D 0.5 mg/kg",4.0 mm^3
same,Median Tumor Volume,"[3]; Table 32, Day 28.0, iv Days 0, 7, 14, 12-R 0.05 mg/kg, Compound D 0.5 mg/kg",4.0 mm^3
same,Median Tumor Volume,"[3]; Table 32, Day 35.0, iv Days 0, 7, 14, 12-R 0.05 mg/kg, Compound D 0.5 mg/kg",4.0 mm^3
same,Median Tumor Volume,"[3]; Table 32, Day 42.0, iv Days 0, 7, 14, 12-R 0.05 mg/kg, Compound D 0.5 mg/kg",4.0 mm^3
same,Median Tumor Volume,"[3]; Table 32, Day 49.0, iv Days 0, 7, 14, 12-R 0.05 mg/kg, Compound D 0.5 mg/kg",4.0 mm^3
same,Median Tumor Volume,"[3]; Table 56, Day 0, iv weekly, 47-R 0.1 mg/Kg, Compound D 0.5 mg/Kg",216.1 mm^3
same,Median Tumor Volume,"[3]; Table 56, Day 2, iv weekly, 47-R 0.1 mg/Kg, Compound D 0.5 mg/Kg",240.9 mm^3
same,Median Tumor Volume,"[3]; Table 56, Day 4, iv weekly, 47-R 0.1 mg/Kg, Compound D 0.5 mg/Kg",99.3 mm^3
same,Median Tumor Volume,"[3]; Table 56, Day 7, iv weekly, 47-R 0.1 mg/Kg, Compound D 0.5 mg/Kg",56.7 mm^3
same,Median Tumor Volume,"[3]; Table 56, Day 9, iv weekly, 47-R 0.1 mg/Kg, Compound D 0.5 mg/Kg",62.5 mm^3
same,Median Tumor Volume,"[3]; Table 56, Day 11, iv weekly, 47-R 0.1 mg/Kg, Compound D 0.5 mg/Kg",62.5 mm^3
same,Median Tumor Volume,"[3]; Table 56, Day 14, iv weekly, 47-R 0.1 mg/Kg, Compound D 0.5 mg/Kg",32.0 mm^3
same,Median Tumor Volume,"[3]; Table 56, Day 16, iv weekly, 47-R 0.1 mg/Kg, Compound D 0.5 mg/Kg",4.0 mm^3
same,Median Tumor Volume,"[3]; Table 56, Day 21, iv weekly, 47-R 0.1 mg/Kg, Compound D 0.5 mg/Kg",4.0 mm^3
same,Median Tumor Volume,"[3]; Table 56, Day 28, iv weekly, 47-R 0.1 mg/Kg, Compound D 0.5 mg/Kg",4.0 mm^3
same,Median Tumor Volume,"[3]; Table 56, Day 35, iv weekly, 47-R 0.1 mg/Kg, Compound D 0.5 mg/Kg",4.0 mm^3
same,Median Tumor Volume,"[3]; Table 56, Day 42, iv weekly, 47-R 0.1 mg/Kg, Compound D 0.5 mg/Kg",4.0 mm^3
same,Median Tumor Volume,"[3]; Table 56, Day 49, iv weekly, 47-R 0.1 mg/Kg, Compound D 0.5 mg/Kg",4.0 mm^3
same,Median Tumor Volume,"[3]; Table 56, Day 56, iv weekly, 47-R 0.1 mg/Kg, Compound D 0.5 mg/Kg",4.0 mm^3
same,Median Tumor Volume,"[3]; Table 56, Day 63, iv weekly, 47-R 0.1 mg/Kg, Compound D 0.5 mg/Kg",4.0 mm^3
same,Median Tumor Volume,"[3]; Table 56, Day 70, iv weekly, 47-R 0.1 mg/Kg, Compound D 0.5 mg/Kg",4.0 mm^3
same,Median Tumor Volume,"[3]; Table 56, Day 77, iv weekly, 47-R 0.1 mg/Kg, Compound D 0.5 mg/Kg",4.0 mm^3
same,Median Tumor Volume,"[3]; Table 56, Day 84, iv weekly, 47-R 0.1 mg/Kg, Compound D 0.5 mg/Kg",4.0 mm^3
same,Median Tumor Volume,"[3]; Table 56, Day 91, iv weekly, 47-R 0.1 mg/Kg, Compound D 0.5 mg/Kg",4.0 mm^3
same,Median Tumor Volume,"[3]; Table 56, Day 98, iv weekly, 47-R 0.1 mg/Kg, Compound D 0.5 mg/Kg",4.0 mm^3
same,Median Tumor Volume,"[3]; Table 56, Day 105, iv weekly, 47-R 0.1 mg/Kg, Compound D 0.5 mg/Kg",4.0 mm^3
same,Median Tumor Volume,"[3]; Table 56, Day 112, iv weekly, 47-R 0.1 mg/Kg, Compound D 0.5 mg/Kg",4.0 mm^3
same,Median Tumor Volume,"[3]; Table 56, Day 119, iv weekly, 47-R 0.1 mg/Kg, Compound D 0.5 mg/Kg",4.0 mm^3
same,Median Tumor Volume,"[3]; Table 56, Day 126, iv weekly, 47-R 0.1 mg/Kg, Compound D 0.5 mg/Kg",4.0 mm^3
same,Median Tumor Volume,"[3]; Table 56, Day 133, iv weekly, 47-R 0.1 mg/Kg, Compound D 0.5 mg/Kg",4.0 mm^3
same,Median Tumor Volume,"[3]; Table 56, Day 140, iv weekly, 47-R 0.1 mg/Kg, Compound D 0.5 mg/Kg",4.0 mm^3
same,Median Tumor Volume,"[3]; Table 56, Day 147, iv weekly, 47-R 0.1 mg/Kg, Compound D 0.5 mg/Kg",4.0 mm^3
same,Median Tumor Volume,"[3]; Table 56, Day 165, iv weekly, 47-R 0.1 mg/Kg, Compound D 0.5 mg/Kg",4.0 mm^3
same,Median Tumor Volume,"[3]; Table 56, Day 175, iv weekly, 47-R 0.1 mg/Kg, Compound D 0.5 mg/Kg",4.0 mm^3
same,Median Tumor Volume,"[3]; Table 56, Day 191, iv weekly, 47-R 0.1 mg/Kg, Compound D 0.5 mg/Kg",4.0 mm^3
same,Median Tumor Volume,"[3]; Table 56, Day 205, iv weekly, 47-R 0.1 mg/Kg, Compound D 0.5 mg/Kg",4.0 mm^3

# Source: US10538535B2, “Antitumoral compounds” (priority 2017, dated 2020)
